ChEMBL document CHEMBL1130911 (Bioorg Med Chem Lett, 1998)
Starred links: 1 amine or outer side, 2 acyl side, 3 side chain; linkers in the order of their positions; H or OH if unused. Non-standard residues stand in square brackets, D forms with d. Residues, ends and D or L forms follow the SMILES beside them. X1 = O=C([C@@]1(N[*:1])CCCC[C@@H]1O)[*:2]; X2 = O=C([C@@]1(N[*:1])CCCC[C@H]1O)[*:2]; X3 = O=C([C@@]1(N[*:1])CCC[C@@H]1O)[*:2]; X4 = O=C([C@]1(N[*:1])CCC[C@H]1O)[*:2]

Columns and labels:
Mu-type opioid receptor = Mu-type opioid receptor (Rattus norvegicus, UniProt P33535); assay: biochemical; format: cell-based, CHO
Mu-type opioid receptor, sequence (P33535 whole entry): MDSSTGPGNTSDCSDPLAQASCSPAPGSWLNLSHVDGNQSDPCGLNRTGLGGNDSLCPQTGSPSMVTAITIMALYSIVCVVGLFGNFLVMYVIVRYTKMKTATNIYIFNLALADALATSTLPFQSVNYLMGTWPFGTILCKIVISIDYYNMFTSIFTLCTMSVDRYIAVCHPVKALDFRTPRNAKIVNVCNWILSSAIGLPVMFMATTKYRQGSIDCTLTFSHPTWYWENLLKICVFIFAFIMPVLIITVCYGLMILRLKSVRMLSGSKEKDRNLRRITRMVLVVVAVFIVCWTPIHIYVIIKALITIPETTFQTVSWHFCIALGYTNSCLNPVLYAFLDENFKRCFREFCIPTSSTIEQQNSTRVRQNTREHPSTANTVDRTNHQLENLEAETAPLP

[1] = molecular target: T1, Delta-type opioid receptor (Rattus norvegicus, UniProt P33533); assay: Inhibitory activity against forskolin-stimulated cAMP production in chinese hamster ovary cells expressing Opioid receptor delta 1; format: functional, cell-based, CHO
T1 sequence (P33533 whole entry): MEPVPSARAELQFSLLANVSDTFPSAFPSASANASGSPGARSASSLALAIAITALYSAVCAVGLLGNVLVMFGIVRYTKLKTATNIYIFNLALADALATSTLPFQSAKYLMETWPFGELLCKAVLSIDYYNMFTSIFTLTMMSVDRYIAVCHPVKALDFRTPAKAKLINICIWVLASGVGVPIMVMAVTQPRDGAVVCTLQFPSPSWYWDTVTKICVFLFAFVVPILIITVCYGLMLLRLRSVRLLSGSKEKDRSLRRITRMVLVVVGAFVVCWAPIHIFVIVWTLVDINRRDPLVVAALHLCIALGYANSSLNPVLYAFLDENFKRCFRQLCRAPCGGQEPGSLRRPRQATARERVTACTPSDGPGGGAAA

[2] = molecular target: Kappa-type opioid receptor (Rattus norvegicus, UniProt P34975); assay: biochemical; format: cell-based, CHO
Kappa-type opioid receptor, sequence (P34975 whole entry): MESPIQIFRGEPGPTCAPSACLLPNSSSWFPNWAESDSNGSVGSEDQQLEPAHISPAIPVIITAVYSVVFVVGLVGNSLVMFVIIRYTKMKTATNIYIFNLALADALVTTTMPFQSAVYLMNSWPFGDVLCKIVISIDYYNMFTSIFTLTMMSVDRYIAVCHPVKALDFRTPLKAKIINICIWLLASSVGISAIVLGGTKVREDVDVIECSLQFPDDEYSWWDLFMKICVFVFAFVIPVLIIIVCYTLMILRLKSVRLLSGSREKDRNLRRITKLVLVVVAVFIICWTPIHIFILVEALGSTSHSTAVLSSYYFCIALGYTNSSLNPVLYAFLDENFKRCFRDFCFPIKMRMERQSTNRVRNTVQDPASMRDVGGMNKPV

[3] = molecular target: T1, Delta-type opioid receptor; assay: biochemical; format: cell-based, CHO
Description: Binding affinity against rat Opioid receptor delta 1 expressed in CHO cells determined by competitive inhibition of 1 nM [3H]DPDPE.

| SMILES | IC50 (Mu-type opioid receptor; cho) | IC50 ([1]; cho) | IC50 ([2]; cho) | IC50 ([3]; cho) | IC50 (Mu-type opioid receptor) | IC50 [1] | IC50 [2] | IC50 [3] |
| --- | --- | --- | --- | --- | --- | --- | --- | --- |
| CC(C)C[C@@H](NC(=O)[C@@H](Cc1ccccc1)NC(=O)CNC(=O)[C@@](C)(CO)NC(=O)[C@H](N)Cc1ccc(O)cc1)C(=O)O | 6.3 nM | 0.071 nM | > 10000 nM | 0.4 nM |  |  |  |  |
| CC(C)C[C@@H](NC(=O)[C@@H](Cc1ccccc1)NC(=O)CNC(=O)[C@](C)(CO)NC(=O)[C@H](N)Cc1ccc(O)cc1)C(=O)O | > 10000 nM | 5000 nM | > 10000 nM | 2500 nM |  |  |  |  |
| CC(C)C[C@H](NC(=O)[C@H](Cc1ccccc1)NC(=O)CNC(=O)[C@@]1(NC(=O)[C@@H](N)Cc2ccc(O)cc2)CCCC[C@@H]1O)C(=O)O (H-Y[X1]GFL-OH) |  |  |  |  | 0.25 nM | 0.005 nM | 6310 nM | 0.01 nM |
| CC(C)C[C@H](NC(=O)[C@H](Cc1ccccc1)NC(=O)CNC(=O)[C@@]1(NC(=O)[C@@H](N)Cc2ccc(O)cc2)CCCC[C@H]1O)C(=O)O (H-Y[X2]GFL-OH) |  |  |  |  | 50 nM | 2 nM | > 10000 nM | 1 nM |
| CC(C)C[C@H](NC(=O)[C@H](Cc1ccccc1)NC(=O)CNC(=O)[C@@]1(NC(=O)[C@@H](N)Cc2ccc(O)cc2)CCC[C@@H]1O)C(=O)O (H-Y[X3]GFL-OH) |  |  |  |  | 2.5 nM | 0.01 nM | > 10000 nM | 0.04 nM |
| CC(C)C[C@H](NC(=O)[C@H](Cc1ccccc1)NC(=O)CNC(=O)[C@]1(NC(=O)[C@@H](N)Cc2ccc(O)cc2)CCC[C@H]1O)C(=O)O (H-Y[X4]GFL-OH) |  |  |  |  | 320 nM | 10 nM | > 10000 nM |  |
| CC(C)C[C@H](NC(=O)[C@H](Cc1ccccc1)NC(=O)CNC(=O)C(C)(C)NC(=O)[C@@H](N)Cc1ccc(O)cc1)C(=O)O (single isomer, unassigned) |  |  |  |  | 158 nM | 140 nM | > 10000 nM | 50 nM |
